Data: patent US20250222045A1, “BIFIDOBACTERIUM LONGUM SUBSP. INFANTIS, MICROBIAL AGENT AND USE THEREOF” (GUANGZHOU JIYAN COSMETICS TECHNOLOGY CO., LTD., priority 2024, published 2025)

Key:
suckling pig skin = test: Exfoliation on excised suckling pig skin (Franz cell), total protein of detached keratinocytes; conditions: 50 μL, 24 h, 32 °C
Experimental: <1> Formulation of cleaning solution (0.1% Triton X-100): 0.1 mL of Triton X-100 was weighed and dissolved in 100 mL of PBS to formulate 0.1% Triton X-100 solution. <2> Formulation of sodium hydroxide solution (12 M): 4.8 g of sodium hydroxide solid was weighed, and added with deionized water to make up to 10 mL, and formulate 12 M sodium hydroxide solution. <1> After being thawed and cleaned, pig skin was fixed between a supply chamber and a receiving chamber of Franz cell, with stratum corneum of the skin facing the supply chamber, and a dermal side facing the receiving chamber. Into the receiving chamber, 7.0 mL of a receiving liquid was added. After suckling pig skin was stretched and fixed well, into the receiving chamber, 1.5 mL of the receiving liquid (PBS) was added through a sample collector, and air was exhausted, so as to make the dermis of the skin be in close contact with the receiving liquid. <2> Samples (as shown in TABLE 24) were added to the skin surface in the supply chamber, where 50 μL of the samples were added to the surface of the pig skin (a PBS buffer solution was added to the surface of the control group as blank control). The samples were evenly spread radially from a central part of the skin towards an edge, and an exposed area of the samples was 3.14 cm^2. Each sample had three parallel replicates. […] Keratinocytes in the cleaning solution were precipitated, supernatant was discarded, and precipitate was re-suspended with 0.5 mL of deionized water. <2> Into the re-suspended liquid, 25 μL of a sodium hydroxide (12 M) solution was added, the keratinocytes were lysed for 30 min in a boiling water bath, and 25 μL of concentrated hydrochloric acid (12 M) was added to neutralize lysis solution. <3> The total protein content was detected according to instructions of a BCA protein assay kit. […] The total protein content in the lysis solution was directly proportional to the quantity of detached keratinocytes. […] GraphPad Prism was applied for plotting, and results were expressed as Mean±SD. Comparison between the groups was statistically analyzed using t-test. […]

type IV collagen = test: Excised skin tissues, combined UVA and UVB irradiation: type IV collagen (IHC); conditions: ex vivo skin, 0.1%
Experimental: (§1) Tissue treatment: Freshly obtained skin tissues were immersed into 75% alcohol to be cleaned for 30 s, and then cleaned in a sterile PBS buffer solution for three times. After the cleaning was finished, the skin was cut into tissue blocks of 24±2 mm^2, with the epidermis facing upwards and the dermis facing downwards, and put into culture moulds; and then the culture moulds were transferred into 6-well plates, with each well being added with 3.7 mL of the culture solution, and cultured in the CO2 incubator (37° C., 5% CO2), with the solution being changed every day.
(§2) Dosing: After the excised skin tissues were cultured for 2 days, irradiation and dosing were started with reference to test groups and corresponding treatment conditions in the table. Irradiation dosages were UVA (30 J/cm^2) and UVB (50 mJ/cm^2). The irradiation was continuously performed for 4 days. After each time of irradiation was completed, the culture solution was replaced with a fresh culture solution, and a dosing treatment was performed. The positive control (VC+VE) was dosed below a liquid surface, and the test sample was does on a surface, with each group being in triplicate. […]
(§3) Statistical analysis of results: GraphPad Prism was applied for plotting, and results were expressed as Mean±SD. Comparison between the groups was statistically analyzed using t-test. […]

type XVII collagen = test: Excised skin tissues, combined UVA and UVB irradiation: type XVII collagen (IHC); conditions: ex vivo skin, 0.1%
Experimental: as §1, §2, §3

collagen fiber = test: Excised skin tissues, combined UVA and UVB irradiation: collagen fiber (Masson staining); conditions: ex vivo skin, 0.1%
Experimental: as §1
Dosing: After the excised skin tissues were cultured for 2 days, irradiation and dosing were started with reference to test groups and corresponding treatment conditions in the table. Irradiation dosages were UVA (30 J/cm^2) and UVB (50 mJ/cm^2). The irradiation was continuously performed for 4 days. […]
Detection of collagen fiber: the skin tissues having undergone the dosing were fixed using 4% paraformaldehyde. […] Slicing result was recovered, photographed using a microscope, and analyzed using Image-Pro Plus image processing software. […]
as §3

type III collagen = test: Excised skin tissues, combined UVA and UVB irradiation: type III collagen (IHC); conditions: ex vivo skin, 0.1%
Experimental: as §1, §2, §3

hyaluronic acid = test: Excised skin tissues, combined UVA and UVB irradiation: hyaluronic acid (immunofluorescence); conditions: ex vivo skin, 0.1%
Experimental: as §1, §2, §3

elastin = test: Excised skin tissues, combined UVA and UVB irradiation: elastin (Victoria Blue staining); conditions: ex vivo skin, 0.1%
Experimental: as §1, §2, §3

[1] = test system: 3D epidermal skin model (EpiKuits®); test: Epidermal atrophy on UVB-irradiated 3D epidermal skin model, tissue morphology H&E, sunburn cells; format: cell-based; conditions: Filtrate 5%, Lysate 5%, Filtrate + lysate 5%, Retinol 0.1%, Bifida ferment lysate 5%; for Sunburn cells: EpiKutis 3D epidermal model, UVB 600 mJ/cm^2, then 24 h, H&E, BC 0, NC 10, WY14643 50 μM
Experimental: [table] <1> According to test groups, models were transferred into 6-well plates (added with 0.9 mL of an EpiGrowth culture solution of corresponding groups in advance), and numbers of the test groups were marked on the 6-well plates. <2> UVB irradiation (a radiation dosage was 600 mJ/cm^2) was performed on the groups requiring UVB irradiation according to the test groups (as shown in TABLE 40). […] <3> After incubation was finished, test substances remaining on surfaces of the models were cleaned with sterile PBS, and residual liquid inside and outside the models was wiped off with a sterile cotton swab. The models for detection of tissue morphology were fixed using 4% paraformaldehyde. After 24 h of fixation, H&E staining detection was performed, photographs were taken under a microscope and observed, and pictures were collected and analyzed. Inhibition rate/down-regulation rate (%)=(negative control group−sample)/negative control group×100% GraphPad Prism was applied for plotting, and results were expressed as Mean±SD. Comparison between the groups was statistically analyzed using t-test. Statistical analysis was two-tailed. P<0.05 is considered to have a significant difference, and P<0.01 is considered to have an extremely significant difference. (2) Epidermal atrophy: Tissue morphology is physiological structure analysis of appearance of tissues after HE staining. The ability of the test substance to resist UVB can be evaluated by analyzing thickness changes of epidermis and growth of four layers of cells on the surface after use of the test substance.

CPD = test: DNA damage repair on UVB-irradiated 3D epidermal skin model, CPD immunohistochemistry; format: cell-based; conditions: Filtrate 5%, Lysate 5%, Filtrate + lysate 5%, Retinol 0.1%, Bifida ferment lysate 5%; for CPD Positive cell Rate (%): BC 0.00%, NC 72.14%, smaller values are better; for CPD fluorescence intensity, Down-regulation Rate: vs NC
Experimental: <1> According to test groups, models were transferred into 6-well plates (added with 0.9 mL of an EpiGrowth culture solution of corresponding groups in advance), and numbers of the test groups were marked on the 6-well plates.
<2> UVB irradiation (a radiation dosage was 600 mJ/cm^2) was performed on the groups requiring UVB irradiation according to the test groups (as shown in TABLE 40). After the irradiation, a sample working solution was evenly distributed on surfaces of the models, and continued to be incubated in a CO2 incubator (37° C., 5% CO2) for 24 h.
<3> After incubation was finished, test substances remaining on surfaces of the models were cleaned with sterile PBS, and residual liquid inside and outside the models was wiped off with a sterile cotton swab.
The models for detection were fixed using 4% paraformaldehyde. After 24 h of fixation, immunohistochemical detection was performed, photographs were taken under a microscope and observed, and pictures were collected and analyzed.
Inhibition rate/down-regulation rate (%)=(negative control group−sample)/negative control group×100%
GraphPad Prism was applied for plotting, and results were expressed as Mean±SD. Comparison between the groups was statistically analyzed using t-test. Statistical analysis was two-tailed. P<0.05 is considered to have a significant difference, and P<0.01 is considered to have an extremely significant difference.
(1) CPD: When a body is exposed to exogenous UV radiation, DNA damage may occur, and this damage may induce body aging. If such DNA damage is not repaired in time, symptoms such as aging of the body may occur.

[2] = BC 0.326, Filtrate 3%, Mandelic acid 5%, Salicylic acid 2%
[3] = 30 J/cm^2 UVA + 50 mJ/cm^2 UVB, IHC

## O=C(O)C(O)c1ccccc1 (centres unmarked) [Mandelic acid]
Suckling pig skin; [2]
  Protein Concentration Mean (exfoliated keratinocytes): 0.448 mg/mL

## CC1=C(/C=C/C(C)=C/C=C/C(C)=C/CO)C(C)(C)CCC1 [Retinol]
Type IV collagen; [3]
  Type IV collagen Relative IOD/area Mean: 0.76
Type IV collagen; UVA + UVB, vs negative control
  Type IV collagen Increase Rate: 26.67%
Type XVII collagen; [3]
  Type XVII collagen Relative IOD Mean: 0.69
Type XVII collagen; UVA + UVB, vs negative control
  Type XVII collagen Increase Rate: 176.00%
Collagen fiber; 30 J/cm^2 UVA + 50 mJ/cm^2 UVB, Masson staining
  Collagen fiber Relative Area Mean: 0.96
Collagen fiber; UVA + UVB, vs negative control
  Collagen fiber Increase Rate: 50.00%
Type III collagen; [3]
  Type III collagen Relative IOD Mean: 0.76
Type III collagen; UVA + UVB, vs negative control
  Type III collagen Increase Rate: 28.81%
Hyaluronic acid; 30 J/cm^2 UVA + 50 mJ/cm^2 UVB, IF
  Hyaluronic acid Relative IOD Mean: 0.69
Hyaluronic acid; UVA + UVB, vs negative control
  Hyaluronic acid Increase Rate: 56.82%
elastin; 30 J/cm^2 UVA + 50 mJ/cm^2 UVB, Victoria staining
  Elastin Relative IOD Mean: 1.19
elastin; UVA + UVB, vs negative control
  Elastin Increase Rate: 260.61%
[1]
  Sunburn cells: 0
[1]; vs NC
  Sunburn cells, Inhibition Rate: 100%
CPD; EpiKutis 3D epidermal model, UVB 600 mJ/cm^2, then 24 h, PC WY14643 50 μM
  CPD Positive cell Rate (%): 58.31%
CPD; EpiKutis 3D epidermal model, UVB 600 mJ/cm^2, then 24 h, PC WY14643 50 μM, listed as retinol
  CPD Positive cell Rate (%): 58.31%
CPD; EpiKutis 3D epidermal model, UVB 600 mJ/cm^2, then 24 h, NC 227349.69, PC WY14643 50 μM
  CPD fluorescence intensity, IOD Mean: 20503.43
CPD
  CPD fluorescence intensity, Down-regulation Rate: 90.98%
CPD; listed as retinol
  CPD fluorescence intensity, Down-regulation Rate: 90.98%

## Cc1cccc(Nc2cc(Cl)nc(SCC(=O)O)n2)c1C [WY14643]
[1]
  Sunburn cells: 3

## O=C(O)c1ccccc1O [salicylic acid]
Suckling pig skin; [2]
  Protein Concentration Mean (exfoliated keratinocytes): 0.347 mg/mL
Suckling pig skin; BC 0.326, PC 10% salicylic acid
  Protein Concentration Mean (exfoliated keratinocytes): 0.555 mg/mL
